Where a name gives a salt, the structure may show the parent alone.
Molecular target: USP7 (Homo sapiens, UniProt Q93009)
Experiment: biochemical
Design: Ub-AMC hydrolysis by recombinant USP7 (20 nM), 30 min pre-incubation, fluorescence read-out
Conditions: read-out: % Inhibition at 50 μM

Chain of USP7 (Q93009 whole entry): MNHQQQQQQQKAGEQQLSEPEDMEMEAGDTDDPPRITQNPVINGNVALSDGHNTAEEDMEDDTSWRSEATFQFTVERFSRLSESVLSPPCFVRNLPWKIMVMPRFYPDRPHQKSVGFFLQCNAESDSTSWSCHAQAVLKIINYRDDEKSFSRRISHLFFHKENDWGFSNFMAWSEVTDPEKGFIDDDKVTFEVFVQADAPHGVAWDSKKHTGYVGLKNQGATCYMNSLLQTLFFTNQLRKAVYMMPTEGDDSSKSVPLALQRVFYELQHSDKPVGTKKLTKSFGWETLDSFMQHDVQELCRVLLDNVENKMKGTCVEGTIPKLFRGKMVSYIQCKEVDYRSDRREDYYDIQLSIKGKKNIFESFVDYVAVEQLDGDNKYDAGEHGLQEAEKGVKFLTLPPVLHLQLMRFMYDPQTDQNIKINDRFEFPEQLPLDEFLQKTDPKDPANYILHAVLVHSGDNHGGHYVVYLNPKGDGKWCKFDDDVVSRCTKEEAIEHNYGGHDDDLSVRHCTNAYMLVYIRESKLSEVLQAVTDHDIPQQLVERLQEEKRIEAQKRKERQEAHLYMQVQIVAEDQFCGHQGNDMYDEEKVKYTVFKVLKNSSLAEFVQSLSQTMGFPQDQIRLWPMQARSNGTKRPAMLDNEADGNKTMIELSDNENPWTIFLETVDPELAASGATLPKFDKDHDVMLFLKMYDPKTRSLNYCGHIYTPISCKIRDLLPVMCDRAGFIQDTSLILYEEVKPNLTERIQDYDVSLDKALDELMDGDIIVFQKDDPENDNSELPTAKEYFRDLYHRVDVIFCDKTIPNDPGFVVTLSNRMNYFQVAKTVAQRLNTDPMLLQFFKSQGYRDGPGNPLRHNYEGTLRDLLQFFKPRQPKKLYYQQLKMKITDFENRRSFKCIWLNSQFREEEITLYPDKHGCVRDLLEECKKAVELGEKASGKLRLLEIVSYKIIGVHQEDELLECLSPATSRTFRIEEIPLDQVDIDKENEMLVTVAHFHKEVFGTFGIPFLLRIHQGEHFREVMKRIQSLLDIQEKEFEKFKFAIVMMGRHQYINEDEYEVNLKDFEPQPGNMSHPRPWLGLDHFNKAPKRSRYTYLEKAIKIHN

For COc1ccc(C[C@H](N)C(=O)N[C@H]2[C@@H](O)[C@H](n3cnc4c(N(C)C)ncnc43)O[C@@H]2CO)cc1 [Puromycin 2HCl], the inhibition at 50 µM was less than 5%.

CN1CCN2c3ccccc3Cc3ccccc3C2C1 (centres unmarked) [Mianserin hcl] was tested, and the inhibition at 50 µM was 21.3%.

Work on COCCc1ccc(OCC(O)CNC(C)C)cc1 (centres unmarked) [Metoprolol tartrate] yielded an inhibition at 50 µM of less than 5%.

Work on Cc1cnc(C(=O)NCCc2ccc(S(=O)(=O)NC(=O)NC3CCCCC3)cc2)cn1 [Glipizide] yielded an inhibition at 50 µM of less than 5%.

C[C@@H]1O[C@@H](O[C@H]2C[C@@H](O)[C@]3(CO)[C@H]4[C@H](O)C[C@]5(C)[C@@H](C6=CC(=O)OC6)CC[C@]5(O)[C@@H]4CC[C@]3(O)C2)[C@H](O)[C@H](O)[C@H]1O [Ouabain] showed an inhibition at 50 µM of less than 5%.

With CC(=O)O[C@H]1C(=O)[C@@]2(C)[C@H]([C@H](OC(=O)c3ccccc3)[C@]3(O)C[C@H](OC(=O)[C@H](O)[C@@H](NC(=O)c4ccccc4)c4ccccc4)C(C)=C1C3(C)C)[C@]1(OC(C)=O)CO[C@@H]1C[C@@H]2O [Taxol] the inhibition at 50 µM was 26.9%.

O=C(c1ccc(F)cc1)C1CCN(CCn2c(=O)[nH]c3ccccc3c2=O)CC1 [Ketanserin tartrate] was tested, and the inhibition at 50 µM was less than 5%.

With COC(=O)[C@]1(C)CC[C@]2(C)CC[C@]3(C)C4=CC=C5C(=CC(=O)C(O)=C5C)[C@]4(C)CC[C@@]3(C)[C@@H]2C1 [Pristimerin] the inhibition at 50 µM was 39.1%.

With CN(Cc1ccc(C(C)(C)C)cc1)Cc1cccc2ccccc12 [Butenafine] the inhibition at 50 µM was 24.9%.

CCC[S+]([O-])c1ccc2[nH]c(NC(=O)OC)nc2c1 (centres unmarked) [Ricobendazole] showed an inhibition at 50 µM of less than 5%.

Work on CCCNCC(O)COc1ccccc1C(=O)CCc1ccccc1 (centres unmarked) [Propafenone] yielded an inhibition at 50 µM of 78.2%.

With C[C@](N)(Cc1ccc(O)c(O)c1)C(=O)O [Methyldopa] the inhibition at 50 µM was less than 5%.

C=C[C@H]1CN2CC[C@H]1C[C@H]2[C@H](O)c1ccnc2ccc(OC)cc12 [Quinine] was tested, and the inhibition at 50 µM was 16.9%.

With CS(=O)(=O)c1ccc([C@H](O)[C@@H](COC(=O)CN)NC(=O)C(Cl)Cl)cc1 [Thiamphenicol glycinate] the inhibition at 50 µM was less than 5%.

Molecule CCCCCN(CCCCC)C(=O)C(CCC(=O)O)NC(=O)c1ccc(Cl)c(Cl)c1 (centres unmarked) [Lorglumide] has an inhibition at 50 µM of less than 5%.

For O=C(CCNNC(=O)c1ccncc1)NCc1ccccc1 [Nialamide], the inhibition at 50 µM was less than 5%.

CS(=O)(=O)Nc1ccc([N+](=O)[O-])cc1Oc1ccccc1 [Nimesulide] showed an inhibition at 50 µM of less than 5%.

Molecule CO[C@H]1/C=C/O[C@@]2(C)Oc3c(C)c(O)c4c(O)c(c(/C=N/N5CCN(C)CC5)c(O)c4c3C2=O)NC(=O)/C(C)=C\C=C\[C@H](C)[C@H](O)[C@@H](C)[C@@H](O)[C@@H](C)[C@H](OC(C)=O)[C@@H]1C [Rifampicin] has an inhibition at 50 µM of less than 5%.

Molecule CCOC(=O)N1CCC(=C2c3ccc(Cl)cc3CCc3cccnc32)CC1 [Loratadine] has an inhibition at 50 µM of 20.4%.

Work on N=c1ccn2c(n1)O[C@H]1[C@H](O)[C@@H](CO)O[C@H]12 [Cyclocytidine HCl] yielded an inhibition at 50 µM of 29.5%.

In the case of CC(=O)SCC(Cc1ccccc1)C(=O)NCC(=O)OCc1ccccc1 (centres unmarked) [Racecadotril], the inhibition at 50 µM was less than 5%.

CCN1CCCC1CNC(=O)c1cc(S(=O)(=O)CC)c(N)cc1OC (centres unmarked) [Amisulpride] showed an inhibition at 50 µM of less than 5%.

For COc1cc2nc(N3CCN(C(=O)C4COc5ccccc5O4)CC3)nc(N)c2cc1OC (centres unmarked) [Doxazosin mesylate], the inhibition at 50 µM was less than 5%.

Work on O=C(O)/C=C/c1ccc(Cn2ccnc2)cc1 [Ozagrel] yielded an inhibition at 50 µM of less than 5%.

In the case of CC[C@@H](CO)NC(=O)[C@@H]1C=C2c3cccc4c3c(cn4C)C[C@H]2N(C)C1 [Methysergide], the inhibition at 50 µM was less than 5%.

Work on Nc1nc2ccc(OC(F)(F)F)cc2s1 [Riluzole HCl] yielded an inhibition at 50 µM of less than 5%.

In the case of Cc1ncc([N+](=O)[O-])n1CC(C)O (centres unmarked) [Secnidazole], the inhibition at 50 µM was less than 5%.

Molecule CCN(CC)CCNC(=O)c1cc(Cl)c(N)cc1OC [Metoclopramide HCl] has an inhibition at 50 µM of less than 5%.

With CCC(C)n1ncn(-c2ccc(N3CCN(c4ccc(OC[C@H]5CO[C@](Cn6cncn6)(c6ccc(Cl)cc6Cl)O5)cc4)CC3)cc2)c1=O (mixture of isomers) [Itraconazole] the inhibition at 50 µM was less than 5%.

In the case of CC1CCc2c(N3CCC(O)CC3)c(F)cc3c(=O)c(C(=O)O)cn1c23 (centres unmarked) [Nadifloxacin], the inhibition at 50 µM was less than 5%.

Work on C[C@H]1[C@H](C)CC[C@]2(C(=O)O)CC[C@]3(C)C(=CC[C@@H]4[C@@]5(C)C[C@@H](O)[C@H](O)[C@@](C)(CO)[C@@H]5CC[C@]43C)[C@H]12 [Asiatic acid] yielded an inhibition at 50 µM of less than 5%.

Work on CN(C(=O)CCCOc1ccc2[nH]c(=O)ccc2c1)C1CCCCC1 [Cilostamide] yielded an inhibition at 50 µM of less than 5%.

With Cc1cccc(Nc2ccccc2C(=O)O)c1C [Mefenamic acid] the inhibition at 50 µM was less than 5%.

With CCN(CC)CC(=O)Nc1c(C)cccc1C [Lidocaine] the inhibition at 50 µM was less than 5%.

c1ccc2c(CC3=NCCN3)cccc2c1 [Naphazoline HCl] showed an inhibition at 50 µM of less than 5%.

Work on O=C1Nc2ccc(Cl)cc2[C@@](C#CC2CC2)(C(F)(F)F)O1 [Efavirenz] yielded an inhibition at 50 µM of 29.8%.

For COc1ccc2[nH]cc(CCNC(C)=O)c2c1 [Melatonin], the inhibition at 50 µM was less than 5%.

Work on CC1=C(C)C(=O)C(CCCCC#CCCCC#CCO)=C(C)C1=O [Docebenone] yielded an inhibition at 50 µM of less than 5%.

In the case of O=C1NCN(c2ccccc2)C12CCN(CCCC(c1ccc(F)cc1)c1ccc(F)cc1)CC2 [Fluspirilene], the inhibition at 50 µM was less than 5%.

COc1ccc2c(c1)[C@]13CCCC[C@@H]1[C@H](C2)N(C)CC3 [Dextromethorphan HBr] was tested, and the inhibition at 50 µM was 41.3%.

CC(=O)O[C@]1(C(C)=O)CC[C@H]2[C@@H]3C=C(C)C4=CC(=O)CC[C@]4(C)[C@H]3CC[C@@]21C [Megestrol acetate] gave an inhibition at 50 µM of less than 5%.

Work on O=P(O)(O)C(Cl)(Cl)P(=O)(O)O [Clodronate disodium] yielded an inhibition at 50 µM of less than 5%.

CC(C)Nc1cccnc1N1CCN(C(=O)c2cc3cc(NS(C)(=O)=O)ccc3[nH]2)CC1 [Delavirdine mesylate] showed an inhibition at 50 µM of less than 5%.

CN1C(C(=O)Nc2ccccn2)=C(O)c2ccccc2S1(=O)=O [Piroxicam] gave an inhibition at 50 µM of less than 5%.

CC1(C)CC[C@]2(C(=O)O)CC[C@]3(C)C(=CC[C@@H]4[C@@]5(C)CC[C@H](O)[C@@](C)(CO)[C@@H]5CC[C@]43C)[C@@H]2C1 [Hederagenin] gave an inhibition at 50 µM of 36.5%.

O=C(CCCN1CCC2(CC1)C(=O)NCN2c1ccccc1)c1ccc(F)cc1 [Spiperone] was tested, and the inhibition at 50 µM was less than 5%.

Molecule COc1cccc2c1C(=O)c1c(O)c3c(c(O)c1C2=O)C[C@@](O)(C(=O)CO)C[C@@H]3O[C@H]1C[C@H](N)[C@H](O)[C@H](C)O1 [Doxorubicin HCl] has an inhibition at 50 µM of less than 5%.

CC(=O)O[C@]1(C(C)=O)CC[C@H]2[C@@H]3C=C(Cl)C4=CC(=O)[C@@H]5C[C@@H]5[C@]4(C)[C@H]3CC[C@@]21C [Cyproterone acetate] was tested, and the inhibition at 50 µM was 28.6%.

In the case of CN(C)CC/C=C1/c2ccccc2COc2ccc(CC(=O)O)cc21 [Olopatadine], the inhibition at 50 µM was less than 5%.

CCCCNC(=O)NS(=O)(=O)c1ccc(C)cc1 [Tolbutamide] was tested, and the inhibition at 50 µM was less than 5%.

Work on OCCOCCN1CCN(C2=Nc3ccccc3Sc3ccccc32)CC1 [Quetiapine fumarate] yielded an inhibition at 50 µM of less than 5%.

O=c1[nH]c2ccccc2n1C1CCN(CCCC(c2ccc(F)cc2)c2ccc(F)cc2)CC1 [Pimozide] showed an inhibition at 50 µM of less than 5%.

CC1(C)C[C@@H]1C(=O)N/C(=C\CCCCSC[C@H](N)C(=O)O)C(=O)O [Cilastatin] showed an inhibition at 50 µM of less than 5%.

Work on CC(=O)[C@H]1CC[C@H]2[C@@H]3CC=C4C[C@@H](O)CC[C@]4(C)[C@H]3CC[C@]12C [Pregnenolone] yielded an inhibition at 50 µM of less than 5%.

For CC1=C(/C=C/C(C)=C/C=C/C(C)=C/C(=O)O)C(C)(C)CCC1 [Retinoic acid], the inhibition at 50 µM was less than 5%.

C[C@@](Cc1ccc(O)c(O)c1)(NN)C(=O)O [Carbidopa] showed an inhibition at 50 µM of less than 5%.

With C[N+](C)(C)CCCCCCCCCC[N+](C)(C)C [Decamethonium 2Br] the inhibition at 50 µM was less than 5%.

Molecule O=C(NCC1CCCCN1)c1cc(OCC(F)(F)F)ccc1OCC(F)(F)F (centres unmarked) [Flecainide] has an inhibition at 50 µM of less than 5%.

For CN1[C@@H]2C[C@@H](OC(=O)[C@H](CO)c3ccccc3)C[C@H]1[C@@H]1O[C@@H]12 [Scopolamine HBr], the inhibition at 50 µM was less than 5%.

For C=C(C)[C@@H]1CC[C@]2(C)CC[C@]3(C)[C@H](CC[C@@H]4[C@@]5(C)CC[C@H](O)C(C)(C)[C@@H]5CC[C@]43C)[C@@H]12 [Lupeol], the inhibition at 50 µM was less than 5%.

In the case of CCCCN1C[C@H](O)[C@@H](O)[C@H](O)[C@H]1CO [Miglustat], the inhibition at 50 µM was less than 5%.

Molecule COC(=O)C1=C(C)NC(C)=C(C(=O)OCCCN2CCC(c3ccccc3)(c3ccccc3)CC2)[C@H]1c1cccc([N+](=O)[O-])c1 [Niguldipine HCl] has an inhibition at 50 µM of less than 5%.

CCC(NC(C)C)C(O)c1ccc(O)c2[nH]c(=O)ccc12 (centres unmarked) [Procaterol hcl] gave an inhibition at 50 µM of less than 5%.

Work on CN(C)C(=O)C(CCN1CCC(O)(c2ccc(Cl)cc2)CC1)(c1ccccc1)c1ccccc1 [Loperamide] yielded an inhibition at 50 µM of less than 5%.

NCCCC[C@H](N[C@@H](CCc1ccccc1)C(=O)O)C(=O)N1CCC[C@H]1C(=O)O [Lisinopril] gave an inhibition at 50 µM of 30.5%.

Work on C[C@]12C[C@H](O)[C@H]3[C@@H](CCC4=CC(=O)CC[C@@]43C)[C@@H]1CC[C@@H]2C(=O)CO [Corticosterone] yielded an inhibition at 50 µM of less than 5%.

With C[C@H]1COc2c(N3CCN(C)CC3)c(F)cc3c(=O)c(C(=O)O)cn1c23 [Levofloxacin HCl] the inhibition at 50 µM was less than 5%.

C/N=C(/NC#N)NCCSCc1csc(NC(=N)N)n1 [Tiotidine] showed an inhibition at 50 µM of 11.6%.

In the case of CC(=O)S[C@@H]1CC2=CC(=O)CC[C@]2(C)[C@H]2CC[C@@]3(C)[C@@H](CC[C@@]34CCC(=O)O4)[C@H]12 [Spironolactone], the inhibition at 50 µM was 36.4%.

CNC1(C)C2CCC(C2)C1(C)C (centres unmarked) [Mecamylamine HCl] was tested, and the inhibition at 50 µM was less than 5%.

Molecule CN(C)CCOC(c1ccccc1)c1ccccc1 [Diphenhydramine HCl] has an inhibition at 50 µM of less than 5%.

CC(C)[C@H]1CC[C@H](C(=O)N[C@H](Cc2ccccc2)C(=O)O)CC1 [nateglinide] was tested, and the inhibition at 50 µM was less than 5%.

In the case of O=C(O)CCCc1ccccc1 [Sodium phenylbutyrate], the inhibition at 50 µM was less than 5%.

With CC(C)n1c(/C=C/[C@H](O)C[C@H](O)CC(=O)O)c(-c2ccc(F)cc2)c2ccccc21 [Fluvastatin Na] the inhibition at 50 µM was less than 5%.

From publication PMC5363571 (Oncotarget, 2016)
